From US7888380B2, “1,2,4-Triazolylaminoaryl (heteroaryl) sulfonamide derivatives” (Janssen Pharmaceutica, N.V., priority 2004, dated 2011)
Counter-ions that a name gives are not always drawn. Like-named read-outs stand apart in the source and are kept apart here.

Legend:
CDK2:Cyclin-E = CDK2:Cyclin-E (Homo sapiens, UniProt P24941); experiment: CDK2 Screening Assay (33P-ATP FlashPlate); assay type: biochemical; conditions: 10 μM ATP; >10 or >100 = less than 50% inhibition at highest concentration tested
Method: A kinase reaction mixture was prepared containing 50 mM Tris-HCl pH=8, 10 mM MgCl2, 0.1 mM Na3PO4, 1 mM DTT, 10 μM ATP, 0.025 μM biotinylated histone-H1 peptide substrate and 0.2 μCuries per well ^33P-γ-ATP (2000-3000 Ci/mmol). 70 μL of the kinase reaction mixture was dispensed into the well of a streptavidin coated FlashPlate™ (Cat. # SMP103, NEN, Boston, Mass.). Then 1 μL of test compound stock in 100% DMSO was added to the wells resulting in a final concentration of 1% DMSO in the reaction with a 100 μl final reaction volume. Next, CDK2:Cyclin-E protein was diluted in 50 mM Tris-HCl pH=8.0, 0.1% BSA at a concentration of 1 ng per μL and 30 μL (30 ng enzyme per test well) was added to each well to initiate the reaction. The reaction was incubated for one hour at 30° C. At the end of the 1 h incubation, the reaction was terminated by aspirating the mixture from the plate and washing the wells twice with PBS containing 100 mM EDTA. The histone-H1 biotinylated peptide substrate became immobilized on the Flashplate™ and the incorporation of ^33P-γ-ATP was measured by reading the plate on a scintillation counter. Inhibition of the enzymatic activity of CDK2 was measured by observing a reduced amount of ^33P-γ-ATP incorporated into the immobilized peptide. […]

[1] = Standard Rat Pharmacokinetics (PK); assay type: in vivo; conditions: for bioavailability: plasma; for Cmax: rat plasma
Method: The conversion of prodrug to active form was evaluated using a standard rat PK protocol. The following procedure may be followed.
Rats were dosed intravenously (IV) at the level of 1.5-3 mg/kg and by oral gavage (PO) at the level of 10-30 mg/kg with prodrug candidate. For each study, four rats were used for IV dosing and four rats were used for PO dosing. Prodrug was typically formulated for IV dosing as a solution in 10% W/V solutol in 5% dextrose in sterile water vehicle (D5W). Prodrug was typically formulated for oral dosing as a uniform suspension in 0.5% methylcellulose vehicle. Blood samples (0.5 mL) were collected into heparinized tubes post dose via orbital sinus puncture. For IV dosing, blood samples were collected at 5, 15 and 30 mins, 1, 2, 4, 6, 8, and 24 hrs after the dosing. For PO dosing, blood samples were collected at 30 mins, 1, 2, 4, 6, 8 and 24 hrs. Blood samples were centrifuged for cell removal, and precisely 200 μL of plasma supernatant was then transferred to a clean vial, placed on dry ice, and subsequently stored in a −70° C. freezer prior to analysis. Results were calculated by WinNonlin Pro version 3.1. Plasma levels were determined and the oral and intravenous area under the concentration vs. time curve (AUC) were compared to determine the % bioavailability (% F) by the following formula: Dose(IV)*AUC(oral)/Dose (oral)*AUC(IV).

[2] = rat, IV/PO 2/10 mg/kg, Dose(IV)*AUC(oral)/Dose(oral)*AUC(IV)
[3] = IV 2 mg/kg of prodrug, read-out: Prodrug Cmax (μM) IV
[4] = PO 10 mg/kg of prodrug, read-out: Prodrug Cmax (μM) PO
[5] = rat, IV/PO 3/30 mg/kg, Dose(IV)*AUC(oral)/Dose(oral)*AUC(IV)
[6] = IV 3 mg/kg of prodrug, read-out: Prodrug Cmax (μM) IV
[7] = PO 30 mg/kg of prodrug, read-out: Prodrug Cmax (μM) PO

Row | Molecule | IC50 (CDK2:Cyclin-E) | bioavailability [1, 2] | Cmax [1, 3] | bioavailability [1, 5] | Cmax [1, 6] | Cmax [1, 7] | other results
1 | Nc1nc(Nc2ccc(S(=O)(=O)NC(=O)CCCC(=O)O)cc2)nn1C(=O)c1c(F)cccc1F [Compound 11, 5-{4-[5-amino-1-(2,6-difluoro-benzoyl)-1H-[1,2,4]triazol-3-ylamino]-benzenesulfonylamino}-5-oxo-pentanoic acid] | 1.53 µM | 0% | 81.8 µM |  |  |  | Cmax [1, 4]: 0.346 µM
2 | CN1CCN(CCC(=O)NS(=O)(=O)c2ccc(Nc3nc(N)n(C(=O)c4c(F)cccc4F)n3)cc2)CC1 [Compound 5, 4-[5-amino-1-(2,6-difluoro-benzoyl)-1H-[1,2,4]triazol-3-ylamino]-N-[3-(4-methyl-piperazin-1-yl)-propionyl]-benzenesulfonamide] | 0.27 µM |  |  |  |  |  | bioavailability ([1]; rat, IV/PO 1.7/17 mg/kg, Dose(IV)*AUC(oral)/Dose(oral)*AUC(IV)): 0%; Cmax ([1]; IV 1.7 mg/kg of prodrug, read-out: Prodrug Cmax (μM) IV): 23.2 µM
3 | COCCOCCOCC(=O)Nc1nc(Nc2ccc(S(N)(=O)=O)cc2)nn1C(=O)c1c(F)cccc1F [Compound 10, N-[2-(2,6-difluoro-benzoyl)-5-(4-sulfamoyl-phenylamino)-2H-[1,2,4]triazol-3-yl]-2-[2-(2-methoxy-ethoxy)-ethoxy]-acetamide] | 0.3 µM | 0% | 67.3 µM |  |  |  | 
4 | CN(C)CC(=O)NS(=O)(=O)c1ccc(Nc2nc(N)n(C(=O)c3c(F)cccc3F)n2)cc1 [Compound 6, 4-[5-amino-1-(2,6-difluoro-benzoyl)-1H-[1,2,4]triazol-3-ylamino]-N-(2-dimethylamino-acetyl)-benzenesulfonamide] | 0.32 µM |  |  | 0% | 25.2 µM |  | 
5 | CCCCC(=O)NS(=O)(=O)c1ccc(Nc2nc(N)n(C(=O)c3c(F)cccc3F)n2)cc1 [Compound 18, 4-[5-amino-1-(2,6-difluoro-benzoyl)-1H-[1,2,4]triazol-3-ylamino]-N-pentanoyl-benzenesulfonamide] | 0.47 µM |  |  | 0.4% | 134 µM | 0.41 µM | 
6 | Nc1nc(Nc2ccc(S(=O)(=O)NC(=O)[C@@H](N)CO)cc2)nn1C(=O)c1c(F)cccc1F [Compound 13, 4-[5-amino-1-(2,6-difluoro-benzoyl)-1H-[1,2,4]triazol-3-ylamino]-N—((S)-2-amino-3-hydroxy-propionyl)-benzenesulfonamide] | 0.14 µM | 0% | 8.15 µM |  |  |  | 
7 | 4-[5-amino-1-(2,6-difluoro-benzoyl)-1H-[1,2,4]triazol-3-ylamino]-N-propionyl-benzenesulfonamide [Compound 20] | 0.28 µM |  |  |  | 33.5 µM | 0.02 µM | % F [1, 5]: 0.34%
8 | NCC(=O)NS(=O)(=O)c1ccc(Nc2nc(N)n(C(=O)c3c(F)cccc3F)n2)cc1 [Compound 2, N-(2-amino-acetyl)-4-[5-amino-1-(2,6-difluoro-benzoyl)-1H-[1,2,4]triazol-3-ylamino]-benzenesulfonamide] | 0.12 µM |  |  |  |  |  | bioavailability ([1]; rat, IV/PO 1.5/15 mg/kg, Dose(IV)*AUC(oral)/Dose(oral)*AUC(IV)): 0%; Cmax ([1]; IV 1.5 mg/kg of prodrug, read-out: Prodrug Cmax (μM) IV): 11.8 µM
9 | Nc1nc(Nc2ccc(S(=O)(=O)NC(=O)Cn3cnnn3)cc2)nn1C(=O)c1c(F)cccc1F [Compound 4, 4-[5-amino-1-(2,6-difluoro-benzoyl)-1H-[1,2,4]triazol-3-ylamino]-N-(2-tetrazol-1-yl-acetyl)-benzenesulfonamide] | 0.43 µM |  |  | 0% | 23.5 µM |  | 
10 | COCCOCCOCC(=O)NS(=O)(=O)c1ccc(Nc2nc(N)n(C(=O)c3c(F)cccc3F)n2)cc1 [Compound 9, 4-[5-amino-1-(2,6-difluoro-benzoyl)-1H-[1,2,4]triazol-3-ylamino]-N-{2-[2-(2-methoxy-ethoxy)-ethoxy]-acetyl}-benzenesulfonamide] | 0.44 µM | 0% |  |  |  |  | 
11 | COCCOCC(=O)NS(=O)(=O)c1ccc(Nc2nc(N)n(C(=O)c3c(F)cccc3F)n2)cc1 [Compound 3, 4-[5-amino-1-(2,6-difluoro-benzoyl)-1H-[1,2,4]triazol-3-ylamino]-N-[2-(2-methoxy-ethoxy)-acetyl]-benzenesulfonamide] | 0.25 µM |  |  | 2% | 42.9 µM | 0.32 µM | 
12 | Nc1nc(Nc2ccc(S(=O)(=O)NC(=O)CCN3CCOCC3)cc2)nn1C(=O)c1c(F)cccc1F [Compound 7, 4-[5-amino-1-(2,6-difluoro-benzoyl)-1H-[1,2,4]triazol-3-ylamino]-N-(3-morpholin-4-yl-propionyl)-benzenesulfonamide] | 0.12 µM |  |  | 0% | 20.5 µM |  | 

These reach a lower IC50 (CDK2:Cyclin-E). Values come first.

Row | IC50 (CDK2:Cyclin-E) | bioavailability [1, 2] | Cmax [1, 3] | bioavailability [1, 5] | Cmax [1, 6] | Cmax [1, 7] | Molecule | other results
13 | 0.06 µM |  |  | 0.17% | 72.2 µM | 0.19 µM | CCOC(=O)CCC(=O)NS(=O)(=O)c1ccc(Nc2nc(N)n(C(=O)c3c(F)cccc3F)n2)cc1 [Compound 8, 4-{4-[5-amino-1-(2,6-difluoro-benzoyl)-1H-[1,2,4]triazol-3-ylamino]-benzenesulfonylamino}-4-oxo-butyric acid ethyl ester] | 
14 | 0.06 µM | 1% | 11 µM |  |  |  | C[C@@H](N)C(=O)NS(=O)(=O)c1ccc(Nc2nc(N)n(C(=O)c3c(F)cccc3F)n2)cc1 [Compound 14, 4-[5-amino-1-(2,6-difluoro-benzoyl)-1H-[1,2,4]triazol-3-ylamino]-N—((R)-2-amino-propionyl)-benzenesulfonamide] | Cmax [1, 4]: 0.08 µM
15 | 0.1 µM | 0% | 31.8 µM |  |  |  | C[C@H](N)C(=O)N[C@@H](C)C(=O)NS(=O)(=O)c1ccc(Nc2nc(N)n(C(=O)c3c(F)cccc3F)n2)cc1.O=C(O)C(F)(F)F.O=C(O)C(F)(F)F.O=C(O)C(F)(F)F [Compound 15, (S)-2-amino-N—((S)-2-{4-[5-amino-1-(2,6-difluoro-benzoyl)-1H-[1,2,4]triazol-3-ylamino]-benzenesulfonylamino}-1-methyl-2-oxo-ethyl)-propionamide 3 TFA salt] | Cmax [1, 4]: 0.167 µM
16 | 0.08 µM | 0% |  |  |  |  | Nc1nc(Nc2ccc(S(=O)(=O)NC(=O)COCCOCCOCC(=O)O)cc2)nn1C(=O)c1c(F)cccc1F [Compound 12, {2-[2-(2-{4-[5-amino-1-(2,6-difluoro-benzoyl)-1H-[1,2,4]triazol-3-ylamino]-benzenesulfonylamino}-2-oxo-ethoxy)-ethoxy]-ethoxy}-acetic acid.2TFA salt] | Cmax [1, 4]: 0.04 µM
17 | 0.07 µM |  |  | 1% | 47 µM | 0.36 µM | Nc1nc(Nc2ccc(S(=O)(=O)NC(=O)CCC(=O)O)cc2)nn1C(=O)c1c(F)cccc1F [Compound 1, 4-{4-[5-amino-1-(2,6-difluoro-benzoyl)-1H-[1,2,4]triazol-3-ylamino]-benzenesulfonylamino}-4-oxo-butyric acid] | 
18 | 0.03 µM | 0% | 1.8 µM |  |  |  | Nc1nc(Nc2ccc(S(=O)(=O)NC(=O)[C@@H]3CCCN3)cc2)nn1C(=O)c1c(F)cccc1F [Compound 16, 4-[5-amino-1-(2,6-difluoro-benzoyl)-1H-[1,2,4]triazol-3-ylamino]-N—((S)-pyrrolidine-2-carbonyl)-benzenesulfonamide] | 
19 | 0.09 µM | 0% | 18.3 µM |  |  |  | Nc1nc(Nc2ccc(S(=O)(=O)NC(=O)[C@@H](N)CC(=O)O)cc2)nn1C(=O)c1c(F)cccc1F [Compound 17, (S)-3-amino-4-{4-[5-amino-1-(2,6-difluoro-benzoyl)-1H-[1,2,4]triazol-3-ylamino]-benzenesulfonylamino}-4-oxo-butyric acid] | Cmax [1, 4]: 0.1 µM
20 | 0.05 µM |  |  | 0.41% | 127 µM | 0.27 µM | CCCC(=O)NS(=O)(=O)c1ccc(Nc2nc(N)n(C(=O)c3c(F)cccc3F)n2)cc1 [Compound 19, 4-[5-amino-1-(2,6-difluoro-benzoyl)-1H-[1,2,4]triazol-3-ylamino]-N-butyryl-benzenesulfonamide] | 
